Measurements taken from the supplement of paper PMC13380429.

Columns and labels:
Settings in all cases: 72 h
Vero E6 [1] = assay: relative viability EC50 (midpoint between 100% and the lowest measured viability); higher = less toxic
Caco-2 [2] = assay: as above
Calu-3 [3] = assay: as above
U2OS [4] = assay: as above
HepG2 [5] = assay: as above
Vero E6 [6] = assay: cell viability relative to DMSO; higher = less toxic
Caco-2 [7] = assay: as above
Calu-3 [8] = assay: as above
U2OS [9] = assay: as above
HepG2 [10] = assay: as above
Vero E6 [11] = assay: drug sensitivity score (DSS) for viability; higher = more toxic; extreme values may be limits of the assay
Caco-2 [12] = assay: as above
Calu-3 [13] = assay: as above
U2OS [14] = assay: as above
HepG2 [15] = assay: as above

Structure (SMILES) | relative viability EC50 (Vero E6 [1]) [µM] | relative viability EC50 (Caco-2 [2]) [µM] | relative viability EC50 (Calu-3 [3]) [µM] | relative viability EC50 (U2OS [4]) [µM] | relative viability EC50 (HepG2 [5]) [µM] | cell viability (Vero E6 [6]; 1 nM) [%] | cell viability (Vero E6 [6]; 10 nM) [%] | cell viability (Vero E6 [6]; 100 nM) [%] | cell viability (Vero E6 [6]; 1000 nM) [%] | cell viability (Vero E6 [6]; 10000 nM) [%] | cell viability (Caco-2 [7]; 1 nM) [%] | cell viability (Caco-2 [7]; 10 nM) [%] | cell viability (Caco-2 [7]; 100 nM) [%] | cell viability (Caco-2 [7]; 1000 nM) [%] | cell viability (Caco-2 [7]; 10000 nM) [%] | cell viability (Calu-3 [8]; 1 nM) [%] | cell viability (Calu-3 [8]; 10 nM) [%] | cell viability (Calu-3 [8]; 100 nM) [%] | cell viability (Calu-3 [8]; 1000 nM) [%] | cell viability (Calu-3 [8]; 10000 nM) [%] | cell viability (U2OS [9]; 1 nM) [%] | cell viability (U2OS [9]; 10 nM) [%] | cell viability (U2OS [9]; 100 nM) [%] | cell viability (U2OS [9]; 1000 nM) [%] | cell viability (U2OS [9]; 10000 nM) [%] | cell viability (HepG2 [10]; 1 nM) [%] | cell viability (HepG2 [10]; 10 nM) [%] | cell viability (HepG2 [10]; 100 nM) [%] | cell viability (HepG2 [10]; 1000 nM) [%] | cell viability (HepG2 [10]; 10000 nM) [%] | drug sensitivity score (Vero E6 [11]) | drug sensitivity score (Caco-2 [12]) | drug sensitivity score (Calu-3 [13]) | drug sensitivity score (U2OS [14]) | drug sensitivity score (HepG2 [15])
C1=Cc2cccc(OCC3CNCCO3)c2C1 (stereo not given) [indeloxazine] | > 10 | > 10 | > 10 | > 10 | > 10 | 104 | 106 | 102 | 102 | 93.8 | 101 | 94.2 | 86.4 | 88.9 | 90.3 | 105 | 93.8 | 104 | 97.1 | 97.8 | 95.2 | 97.8 | 101 | 99.3 | 96.8 | 105 | 111 | 104 | 93.1 | 91.7 | 0 | 2.3 | 0 | 0 | 0
CCOC(=O)[C@H](CCc1ccccc1)N[C@@H](C)C(=O)N(CC(=O)O)C1Cc2ccccc2C1 [delapril] | > 10 | > 10 | > 10 | > 10 | > 10 | 107 | 102 | 111 | 107 | 99.7 | 106 | 103 | 98.2 | 111 | 95.4 | 98.6 | 101 | 92.3 | 90.6 | 106 | 100 | 93.1 | 103 | 98.6 | 98 | 105 | 102 | 98.3 | 96.7 | 98 | 0 | 0 | 0 | 0 | 0
O=C1NCN(c2ccccc2)C12CCN(CCCC(c1ccc(F)cc1)c1ccc(F)cc1)CC2 [fluspirilene] | > 10 | > 10 | > 10 | > 10 | > 10 | 115 | 98.1 | 103 | 103 | 93.7 | 88.3 | 106 | 80.5 | 116 | 99 | 101 | 104 | 99.4 | 105 | 105 | 98.4 | 103 | 98.1 | 105 | 90.5 | 112 | 100 | 101 | 88.5 | 84.8 | 0 | 0 | 0 | 0 | 1.1
CCCCCCCCCC(=O)OCCN1CCN(CCCN2c3ccccc3Sc3ccc(C(F)(F)F)cc32)CC1 [fluphenazine-decanoate] | > 10 | > 10 | > 10 | > 10 | > 10 | 104 | 105 | 96.3 | 106 | 105 | 111 | 84.8 | 96.3 | 98 | 92.1 | 101 | 95.8 | 98.5 | 107 | 91.6 | 97.2 | 100 | 99 | 100 | 96.9 | 95.5 | 97.4 | 96.9 | 93.7 | 108 | 0 | 0 | 0 | 0 | 0
CC(=O)OCC1=C(C(=O)O)N2C(=O)[C@@H](NC(=O)Cc3cccs3)[C@H]2SC1 [cephalothin] | > 10 | > 10 | > 10 | > 10 | > 10 | 100 | 97.6 | 93.6 | 88.7 | 110 | 110 | 103 | 102 | 98.5 | 119 | 117 | 94.2 | 104 | 103 | 106 | 104 | 98.4 | 94.1 | 99.4 | 104 | 87.9 | 102 | 86 | 86.8 | 86.3 | 0 | 0 | 0 | 0 | 0.8
CC(C)C[C@@H]1NC(=O)[C@@H](C(C)C)NC(=O)[C@@H]2CCCN2C(=O)[C@@H](CC(=O)O)NC(=O)[C@@H](Cc2c[nH]c3ccccc23)NC1=O [BQ-123] | > 10 | > 10 | > 10 | > 10 | > 10 | 96.2 | 102 | 92.2 | 99.7 | 104 | 96.4 | 93.2 | 103 | 91.4 | 109 | 93.7 | 94.5 | 95.8 | 90.6 | 100 | 99.7 | 96 | 101 | 95 | 101 | 95.4 | 100 | 98 | 110 | 108 | 0 | 0 | 0 | 0 | 0
C[C@@H](O)[C@@H]1NC(=O)[C@H](CCCCN)NC(=O)[C@@H](Cc2c[nH]c3ccccc23)NC(=O)[C@H](Cc2ccccc2)NC(=O)[C@@H](NC(=O)[C@H](N)Cc2ccccc2)CSSC[C@@H](C(=O)N[C@H](CO)[C@@H](C)O)NC1=O [octreotide] | > 10 | > 10 | > 10 | > 10 | > 10 | 110 | 103 | 110 | 107 | 93 | 103 | 115 | 95.6 | 119 | 104 | 94.3 | 91.9 | 120 | 101 | 109 | 97.5 | 101 | 96 | 102 | 101 | 98.1 | 98.9 | 98.8 | 115 | 92.7 | 0 | 0 | 0 | 0 | 0
NC(=O)CN1Cc2ccccc2OC1=O [caroxazone] | > 10 | > 10 | > 10 | > 10 | > 10 | 99.5 | 99.8 | 101 | 96.9 | 96.4 | 109 | 102 | 101 | 96 | 104 | 103 | 93.2 | 93.7 | 105 | 101 | 100 | 99 | 101 | 95.3 | 102 | 101 | 94.6 | 101 | 93.1 | 100 | 0 | 0 | 0 | 0 | 0
CCN1CCC[C@H]1CNC(=O)c1c(O)c(Cl)cc(Cl)c1OC [raclopride] | > 10 | > 10 | > 10 | > 10 | > 10 | 101 | 100 | 94.7 | 93 | 100 | 91.2 | 88.3 | 93.5 | 84 | 96.6 | 97.9 | 94 | 92.4 | 96.7 | 97.4 | 101 | 95.2 | 96.6 | 95 | 99.9 | 99.6 | 104 | 93.7 | 101 | 93.1 | 0 | 0 | 0 | 0 | 0
CC(C)NCC(O)c1ccc([N+](=O)[O-])cc1 (stereo not given) [nifenalol] | > 10 | > 10 | > 10 | > 10 | > 10 | 107 | 106 | 102 | 93.3 | 89.6 | 87.2 | 99.9 | 92.7 | 85.1 | 94 | 101 | 96.8 | 103 | 98.4 | 108 | 93.8 | 100 | 102 | 99.2 | 99.7 | 98.3 | 101 | 103 | 108 | 106 | 0 | 0 | 0 | 0 | 0
Cc1c(-c2ccccc2)oc2c(C(=O)OCCN3CCCCC3)cccc2c1=O [flavoxate] | > 10 | > 10 | > 10 | > 10 | > 10 | 98.1 | 91.7 | 96.2 | 94.1 | 107 | 89.1 | 91.5 | 92.9 | 97.1 | 108 | 94.9 | 91.9 | 91.7 | 105 | 110 | 97.3 | 101 | 93 | 104 | 98.8 | 102 | 99.2 | 104 | 98.3 | 96.1 | 0 | 0 | 0 | 0 | 0
Cc1ccc(S(=O)(=O)Cc2nc(-c3ccc(C(=O)NCc4cccnc4)cc3)oc2C)cc1 | 0.0372 | 0.0408 | 0.036 | 0.0364 | 0.0249 | 106 | 110 | 2.3 | 1.5 | 2.6 | 104 | 107 | 11.2 | 5.4 | 16.6 | 105 | 102 | 8.7 | 5.3 | 5.3 | 96.4 | 108 | 1.1 | -0.1 | -0.2 | 101 | 77.3 | 23.5 | 12.2 | 9.5 | 29.2 | 27.6 | 28.3 | 29.7 | 28.2
Cc1ccccc1N1CCN(CCc2nnc3n2CCCC3)CC1 [dapiprazole] | > 10 | > 10 | > 10 | > 10 | > 10 | 92.9 | 93.2 | 97.6 | 98.9 | 92.8 | 106 | 99.9 | 86.9 | 98 | 92.5 | 106 | 102 | 92.9 | 102 | 101 | 99.2 | 105 | 96.2 | 106 | 102 | 99.8 | 104 | 92.9 | 94.3 | 102 | 0 | 0 | 0 | 0 | 0
COc1ccc(-c2cc(=O)c3c(OC)c(OC)c(OC)c(OC)c3o2)cc1 [tangeritin] | > 10 | > 10 | > 10 | > 10 | > 10 | 91.8 | 98.7 | 92.4 | 98 | 97 | 95.1 | 89.6 | 99 | 103 | 91.7 | 106 | 99.6 | 103 | 100 | 92.3 | 98.5 | 94.3 | 98.9 | 97.4 | 89.8 | 94.2 | 101 | 95.2 | 107 | 105 | 0 | 0 | 0 | 0 | 0
